# From PubChem BioAssay AID328 (DTP/NCI, 2004)
# Values joined by “and” are separate entries in the source; they are usually repeats but may differ in a detail not shown here. Equal entries are not always repeated. Toxic doses and inconclusive results are not listed.
# Test system: BDF1 mice, P388 leukemia ip, median survival T/C
# Test: NCI In Vivo Anticancer Drug Screen. Data for tumor model P388 Leukemia (intraperitoneal) in B6D2F1 (BDF1) mice
# Settings: endpoint: median survival time, higher = longer survival
# Outline: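 Survival ratio, drug arm over vehicle arm, in mice with a transplanted tumour.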
compound,measurement,setting,value
COc1cc2cc3c4cc(OC)c(OC)cc4cc[n+]3c(C)c2cc1OC (tested in a mixture with another compound),T/C,"dose: 8.0 mg/kg/injection, schedule: Q01DX008 (ip), vehicle: other",156 % of control
same,T/C,"dose: 8.0 mg/kg/injection, schedule: Q01DX009 (ip), vehicle: clinical formulation",155 % of control
same,T/C,"dose: 8.0 mg/kg/injection, schedule: Q03HX008 (ip), vehicle: other",111 % of control
same,T/C,"dose: 9.3 mg/kg/injection, schedule: Q01DX009 (ip), vehicle: saline",150 % of control
same,T/C,"dose: 12.5 mg/kg/injection, schedule: Q04DX003 (ip), vehicle: other",121 % of control
same,T/C,"dose: 16.0 mg/kg/injection, schedule: Q01DX008 (ip), vehicle: other",154 % of control
same,T/C,"dose: 16.0 mg/kg/injection, schedule: Q01DX008 (ip), vehicle: water",163 % of control
same,T/C,"dose: 16.0 mg/kg/injection, schedule: Q01DX009 (ip), vehicle: Klucel (hydroxypropylcellulose) (HPC)",157 % of control
same,T/C,"dose: 16.0 mg/kg/injection, schedule: Q01DX009 (ip), vehicle: clinical formulation",161 % of control
same,T/C,"dose: 16.0 mg/kg/injection, schedule: Q01DX009 (oral), vehicle: other",94 % of control
same,T/C,"dose: 16.0 mg/kg/injection, schedule: Q01DX009 (sc), vehicle: other",101 % of control
same,T/C,"dose: 16.0 mg/kg/injection, schedule: Q03HX016 (ip), vehicle: other",153 % of control
same,T/C,"dose: 16.0 mg/kg/injection, schedule: Q03HX024 (ip), vehicle: other",174 % of control
same,T/C,"dose: 32.0 mg/kg/injection, schedule: Q01DX008 (ip), vehicle: Klucel (hydroxypropylcellulose) (HPC)",182 % of control
same,T/C,"dose: 32.0 mg/kg/injection, schedule: Q01DX008 (ip), vehicle: other",167 % of control
same,T/C,"dose: 32.0 mg/kg/injection, schedule: Q01DX008 (ip), vehicle: water",163 % of control
same,T/C,"dose: 32.0 mg/kg/injection, schedule: Q01DX009 (ip), vehicle: Klucel (hydroxypropylcellulose) (HPC)",186 % of control
same,T/C,"dose: 32.0 mg/kg/injection, schedule: Q01DX009 (ip), vehicle: clinical formulation",211 % of control
same,T/C,"dose: 32.0 mg/kg/injection, schedule: Q01DX009 (oral), vehicle: other",103 % of control
same,T/C,"dose: 32.0 mg/kg/injection, schedule: Q01DX009 (sc), vehicle: other",115 % of control
same,T/C,"dose: 32.0 mg/kg/injection, schedule: Q03HX016 (ip), vehicle: other",182 % of control
same,T/C,"dose: 32.0 mg/kg/injection, schedule: Q03HX024 (ip), vehicle: other",190 % of control
same,T/C,"dose: 37.5 mg/kg/injection, schedule: Q01DX009 (ip), vehicle: saline",175 % of control
same,T/C,"dose: 37.5 mg/kg/injection, schedule: Q04DX003 (ip), vehicle: saline",162 % of control
same,T/C,"dose: 46.7 mg/kg/injection, schedule: Q04DX003 (ip), vehicle: alkali diluted with saline",165 % of control
same,T/C,"dose: 50.0 mg/kg/injection, schedule: Q04DX002 (ip), vehicle: saline",154 % of control
same,T/C,"dose: 50.0 mg/kg/injection, schedule: Q04DX003 (ip), vehicle: saline",157 % of control
same,T/C,"dose: 50.0 mg/kg/injection, schedule: Q04DX003 (ip), vehicle: water",158 % of control
same,T/C,"dose: 64.0 mg/kg/injection, schedule: Q01DX001 (ip), vehicle: other",120 % of control
same,T/C,"dose: 64.0 mg/kg/injection, schedule: Q01DX001 (oral), vehicle: other",100 % of control
same,T/C,"dose: 64.0 mg/kg/injection, schedule: Q01DX001 (sc), vehicle: other",103 % of control
same,T/C,"dose: 64.0 mg/kg/injection, schedule: Q01DX008 (ip), vehicle: Klucel (hydroxypropylcellulose) (HPC)",208 % of control
same,T/C,"dose: 64.0 mg/kg/injection, schedule: Q01DX008 (ip), vehicle: other",206 % of control
same,T/C,"dose: 64.0 mg/kg/injection, schedule: Q01DX008 (ip), vehicle: water",185 % of control
same,T/C,"dose: 64.0 mg/kg/injection, schedule: Q01DX009 (ip), vehicle: Klucel (hydroxypropylcellulose) (HPC)",182 % of control and 203 % of control
same,T/C,"dose: 64.0 mg/kg/injection, schedule: Q01DX009 (ip), vehicle: clinical formulation",194 % of control
same,T/C,"dose: 64.0 mg/kg/injection, schedule: Q01DX009 (oral), vehicle: other",107 % of control
same,T/C,"dose: 64.0 mg/kg/injection, schedule: Q04DX003 (ip), vehicle: other",161 % of control and 163 % of control
same,T/C,"dose: 64.0 mg/kg/injection, schedule: Q04DX003 (ip), vehicle: water",159 % of control
same,T/C,"dose: 75.0 mg/kg/injection, schedule: Q01DX001 (ip), vehicle: saline",154 % of control
same,T/C,"dose: 75.0 mg/kg/injection, schedule: Q01DX009 (ip), vehicle: saline",183 % of control
same,T/C,"dose: 75.0 mg/kg/injection, schedule: Q04DX003 (ip), vehicle: saline",158 % of control
same,T/C,"dose: 77.8 mg/kg/injection, schedule: Q04DX003 (ip), vehicle: alkali diluted with saline",165 % of control
same,T/C,"dose: 86.4 mg/kg/injection, schedule: Q04DX003 (ip), vehicle: other",193 % of control
same,T/C,"dose: 100.0 mg/kg/injection, schedule: Q04DX002 (ip), vehicle: saline",154 % of control and 169 % of control
same,T/C,"dose: 100.0 mg/kg/injection, schedule: Q04DX003 (ip), vehicle: other",155 % of control
same,T/C,"dose: 100.0 mg/kg/injection, schedule: Q04DX003 (ip), vehicle: water",200 % of control
same,T/C,"dose: 128.0 mg/kg/injection, schedule: Q01DX001 (oral), vehicle: other",98 % of control
same,T/C,"dose: 128.0 mg/kg/injection, schedule: Q01DX001 (sc), vehicle: other",100 % of control
same,T/C,"dose: 128.0 mg/kg/injection, schedule: Q01DX008 (ip), vehicle: other",156 % of control
same,T/C,"dose: 128.0 mg/kg/injection, schedule: Q01DX009 (ip), vehicle: Klucel (hydroxypropylcellulose) (HPC)",186 % of control
same,T/C,"dose: 128.0 mg/kg/injection, schedule: Q01DX009 (oral), vehicle: other",103 % of control
same,T/C,"dose: 128.0 mg/kg/injection, schedule: Q01DX009 (sc), vehicle: other",159 % of control
same,T/C,"dose: 128.0 mg/kg/injection, schedule: Q04DX003 (ip), vehicle: Klucel (hydroxypropylcellulose) (HPC)",156 % of control
same,T/C,"dose: 128.0 mg/kg/injection, schedule: Q04DX003 (ip), vehicle: other",167 % of control and 175 % of control
same,T/C,"dose: 128.0 mg/kg/injection, schedule: Q08DX002 (ip), vehicle: other",155 % of control
same,T/C,"dose: 130.0 mg/kg/injection, schedule: Q04DX003 (ip), vehicle: alkali diluted with saline",180 % of control
same,T/C,"dose: 144.0 mg/kg/injection, schedule: Q04DX003 (ip), vehicle: other",207 % of control
same,T/C,"dose: 150.0 mg/kg/injection, schedule: Q01DX001 (ip), vehicle: saline",150 % of control
same,T/C,"dose: 150.0 mg/kg/injection, schedule: Q04DX003 (ip), vehicle: saline",175 % of control
same,T/C,"dose: 200.0 mg/kg/injection, schedule: Q04DX002 (ip), vehicle: saline",163 % of control and 176 % of control
same,T/C,"dose: 200.0 mg/kg/injection, schedule: Q04DX003 (ip), vehicle: other",189 % of control
same,T/C,"dose: 216.0 mg/kg/injection, schedule: Q04DX003 (ip), vehicle: alkali diluted with saline",205 % of control
same,T/C,"dose: 256.0 mg/kg/injection, schedule: Q01DX001 (oral), vehicle: other",103 % of control
same,T/C,"dose: 256.0 mg/kg/injection, schedule: Q01DX001 (sc), vehicle: other",108 % of control
same,T/C,"dose: 256.0 mg/kg/injection, schedule: Q01DX009 (oral), vehicle: other",112 % of control
same,T/C,"dose: 256.0 mg/kg/injection, schedule: Q04DX003 (ip), vehicle: Klucel (hydroxypropylcellulose) (HPC)",156 % of control
same,T/C,"dose: 256.0 mg/kg/injection, schedule: Q04DX003 (ip), vehicle: other",206 % of control and 208 % of control
same,T/C,"dose: 256.0 mg/kg/injection, schedule: Q08DX002 (ip), vehicle: other",174 % of control
same,T/C,"dose: 300.0 mg/kg/injection, schedule: Q01DX001 (ip), vehicle: saline",166 % of control
same,T/C,"dose: 300.0 mg/kg/injection, schedule: Q04DX003 (ip), vehicle: saline",220 % of control
same,T/C,"dose: 400.0 mg/kg/injection, schedule: Q04DX002 (ip), vehicle: saline",163 % of control
same,T/C,"dose: 512.0 mg/kg/injection, schedule: Q01DX001 (oral), vehicle: other",99 % of control
same,T/C,"dose: 512.0 mg/kg/injection, schedule: Q01DX001 (sc), vehicle: other",107 % of control
same,T/C,"dose: 512.0 mg/kg/injection, schedule: Q01DX009 (oral), vehicle: other",112 % of control
